According to PMC8076300, “A novel cystathionine γ-lyase inhibitor, I194496, inhibits the growth and metastasis of human TNBC via downregulating multiple signaling pathways” (Scientific Reports, 2021):

Molecular target: T1, cystathionine γ-lyase (CSE) (Homo sapiens, UniProt P32929)
T1 construct: gene CTH
Assay: methylene blue H2S production assay with purified recombinant CSE, L-cysteine substrate
Type: biochemical

T1 sequence (P32929 whole entry): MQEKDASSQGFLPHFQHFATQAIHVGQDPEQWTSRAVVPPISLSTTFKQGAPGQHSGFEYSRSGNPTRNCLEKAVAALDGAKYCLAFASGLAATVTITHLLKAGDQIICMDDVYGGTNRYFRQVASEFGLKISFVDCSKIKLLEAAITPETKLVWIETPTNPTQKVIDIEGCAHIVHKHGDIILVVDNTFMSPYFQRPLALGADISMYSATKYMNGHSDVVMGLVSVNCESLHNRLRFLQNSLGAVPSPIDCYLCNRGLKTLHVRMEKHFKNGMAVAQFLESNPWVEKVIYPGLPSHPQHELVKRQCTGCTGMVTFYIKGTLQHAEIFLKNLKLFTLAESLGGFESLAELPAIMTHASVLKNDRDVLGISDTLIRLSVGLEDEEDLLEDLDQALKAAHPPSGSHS

Q: How did the IC50 turn out when `COc1ccc(-c2cc(C(F)F)n3ncc(C(=O)Nc4ccc(S(=O)(=O)Nc5ccccc5OC)cc4)c3n2)cc1` [I194496, 7-(difluoromethyl)-N-{4-[(2-methoxyanilino)sulfonyl]phenyl}-5-(4-methoxyphenyl)pyrazolo[1,5-a]pyrimidine-3-carboxamide] was run?
A: 790 µM
